Experimental data reported in patent publication US9656981B2, “Peripherally-acting cannabinoid receptor agonists for chronic pain” (The Regents of the University of California, priority 2012, dated 2017).
Where two headings read alike, the source gives them in different places.

How the values were obtained:
CB1R = CB1R (Homo sapiens, UniProt P21554); test: CB1R radioligand displacement binding assay (CP55940 radioligand)
Method: Heterologous competition binding assays were performed to calculate receptor affinities. Unlabeled SR141716 or SR144528 were used as appropriate controls for non-specific binding (NSB) in the assay. Calculation of the equilibrium dissociation constant (Ki) was performed using the Cheng-Prusoff equation.

CB2R = CB2R (Homo sapiens, UniProt P34972); test: CB2R radioligand displacement binding assay (CP55940 radioligand)
Chain of CB2R (P34972 whole entry): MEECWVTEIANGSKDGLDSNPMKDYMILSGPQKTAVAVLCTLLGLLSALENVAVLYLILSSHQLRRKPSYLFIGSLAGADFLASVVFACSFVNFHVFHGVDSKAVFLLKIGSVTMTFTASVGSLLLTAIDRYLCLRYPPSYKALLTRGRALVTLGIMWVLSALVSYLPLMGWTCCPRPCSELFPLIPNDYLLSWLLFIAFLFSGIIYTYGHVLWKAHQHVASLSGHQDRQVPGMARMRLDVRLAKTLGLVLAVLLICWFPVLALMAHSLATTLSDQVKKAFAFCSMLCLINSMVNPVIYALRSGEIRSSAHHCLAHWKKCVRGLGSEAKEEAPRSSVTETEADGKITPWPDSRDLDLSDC
Method: Detailed radioligand displacement assays (using the well-characterized CBR agonist […] as the radioligand) were conducted to determine the affinity (Ki) of the test compounds for CB1R and CB2R as has been previously described by our group^112,113. Heterologous competition binding assays were performed to calculate receptor affinities. Unlabeled SR141716 or SR144528 were used as appropriate controls for non-specific binding (NSB) in the assay. Calculation of the equilibrium dissociation constant (Ki) was performed using the Cheng-Prusoff equation.

human CB1R (hCB1R) = human CB1R (hCB1R) (Homo sapiens, UniProt P21554); test: human CB1R (hCB1R) calcium flux assay; format: cell-based; details: Table 1; read-out: Ca Flux % Emax
Chain of human CB1R (hCB1R) (P21554 whole entry): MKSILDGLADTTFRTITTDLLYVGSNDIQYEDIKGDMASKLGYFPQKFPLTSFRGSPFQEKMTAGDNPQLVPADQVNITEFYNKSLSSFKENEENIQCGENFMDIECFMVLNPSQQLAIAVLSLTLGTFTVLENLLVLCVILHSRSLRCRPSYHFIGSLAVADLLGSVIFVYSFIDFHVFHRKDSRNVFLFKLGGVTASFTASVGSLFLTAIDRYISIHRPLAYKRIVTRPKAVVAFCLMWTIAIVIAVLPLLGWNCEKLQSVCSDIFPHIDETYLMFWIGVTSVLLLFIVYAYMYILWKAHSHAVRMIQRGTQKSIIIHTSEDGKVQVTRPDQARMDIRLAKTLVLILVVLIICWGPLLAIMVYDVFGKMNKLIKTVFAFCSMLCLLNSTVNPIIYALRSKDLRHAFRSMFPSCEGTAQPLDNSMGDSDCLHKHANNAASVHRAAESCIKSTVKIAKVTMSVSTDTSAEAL
Source text: Compounds were first screened for: a) CB1R and CB2R binding, b) CB1R agonist activity using the human CB1R (hCB1R) calcium flux assay, and c) BBB permeability using the Madin-Darby canine kidney (MDCK-MDR1) cell line assay.
The calcium 3 dye assays were run according to manufacturer's specifications (http://www.moleculardevices.com/Products/Assay-Kits/GPCRs/FLIPR-Calcium.html) and as reported in our previous publications^112,113. Briefly, wells of black clear-bottom 96-well tissue culture-treated plates are seeded with 20,000 cells the afternoon before assay. The day of assay, the cells are incubated with the Ca^2+ indicator dye for 1 hr @ 37° C. For antagonist assays, the test compound is preincubated with the cells during the last 10 min of the dye incubation. Basal or unstimulated fluorescence intensity is recorded in the FlexStation @ 37° C. for 13 sec followed by the addition of test compound or CP 55,940 (depending on the assay endpoint). Fluorescence intensity is recorded for an additional 47 sec. The effect of test compound in each well is determined by subtracting the minimum from the maximum fluorescence during the 47-sec recording period.

[1] = test system: sciatic nerve entrapment (SNE) neuropathy; test: SNE neuropathy, mechanical allodynia (von Frey); format: in vivo, rat; details: 0.3 mg/kg
Method: The effectiveness of CBR agonists was tested for alleviating the painful symptoms of neuropathy induced by unilateral sciatic nerve entrapment (SNE)^131. The peripheral neuropathy induced by SNE is highly comparative to that of chronic constriction injury (CCI), which uses chromic gut suture materials instead of polyethylene cuffs^132. […] This increased excitability is at least in part attributable to injury-induced post-transcriptional transport of the voltage-gated sodium channel 1.8 (NaV1.8) mRNA, axonal accumulation of NaV1.8 mRNA, and its local protein translation leading to the increased NaV1.8 functional expression in injured nerve^136. The hyperexcitability and ectopic burst discharge of primary sensory neurons are widely considered to be the major contributors to pain symptomatology of peripheral neuropathy models. The SNE-induced mechanical allodynia effectively models the most common complaint of human neuropathy patients of dynamic mechanical allodynia. Behavioral measurements of mechanical sensitivity were conducted before and after induction of SNE as follows:
(§1) Rats are placed in a plastic-walled cage (10×20×13 cm) with a metal mesh floor (0.6×0.6 cm holes) and allowed to acclimate for 10 min. The amount of pressure (g) needed to evoke a hindpaw withdrawal response is measured 4 times on each paw separated by 30-s intervals using a von Frey-type digital meter (Model 1601C, IITC Instr.). Results of 4 tests/session are averaged for each paw.

rats [2] = test: Catalepsy (ring) test of the tetrad; format: in vivo, rat; details: 1-3 hrs
Method: Catalepsy (ring) test. Catalepsy was determined with a ring immobility test^154, modified for rats^139, 153. Rats are placed with their forepaws on a horizontal metal ring (12 cm diameter) at a height that allows their hindpaws to just touch the bench surface. Immobility is recorded as the time for the rat to move off the ring with a 100 s cutoff. Rats are tested before vehicle/drug injections and again at various times after injection.

rats [3] = test: Hypothermia test of the tetrad; format: in vivo, rat
Method: Rats are acclimated to a plastic restrainer apparatus (Model RTV-180 Braintree Scientific Inc.) on the day of testing by placing them in the restrainer twice for 5 min separated by 20 min. Baseline core temperature is taken before treatment, and the rectal temperature is measured again at various times after injection of the CB1R ligands.

rats [4] = test: Rotarod test of the tetrad; format: in vivo, rat; details: 2-3 hr
Method: Rats were tested for motor function and the ataxic effects of novel drugs as described previously^151-153. To determine drug effects on motor coordination, rats are trained 72 h before the test (3 sessions 24 h apart) to remain for at least 180 s on a rotarod revolving at an acceleration of 4-40 revs over 5 min). Rats are tested immediately before vehicle or drug injections and tested again at 2, 6, 24 and 48 hrs after injection. The time for which the rats are able to remain on the rotarod is recorded up to a cut-off of 5 min.

rats [5] = test: Tail-flick test of the tetrad; format: in vivo, rat; details: 0.3 mg/kg, intraperitoneal
Source text: A modified Hargreaves apparatus (Model 390, IITC Instr.) is used to measure tail-flick latency (TFL). Radiant heat is directed to a point 3 cm from the tail tip and the TFL observed and timed with a photo cell counter. The intensity of the radiant heat is adjusted for a baseline TFL of approximately 5-7 seconds for naïve rats, with a 25 s cutoff set to avoid tissue damage (see FIG. 3).

[6] = test system: CFA-induced mechanical allodynia; test: CFA chronic inflammation, mechanical allodynia; format: in vivo, rat; details: systemic injection
Method: as §1
Compounds were tested in a well-established model of chronic inflammation. In this model, unilateral intraplantar injection of complete Freund's adjuvant (CFA) leads to long-lasting symptoms of mechanical allodynia and thermal hyperalgesia of the affected hindpaw, which is alleviated by local, […] administration of CB1R ligands^125, 155. […] This is consistent with the higher CB1R affinity of our novel compound 13339-145-35 (Compound 9, see Table 1) compared with the AstraZeneca AZ11713908 compound^125.

[7] = test system: CFA-induced heat hyperalgesia; test: CFA chronic inflammation, heat hyperalgesia (Hargreaves); format: in vivo, rat; details: systemic injection
Method: The Hargreaves method was used to assess paw-withdrawal latency to a thermal nociceptive stimulus^175. Rats were acclimated (10 min) within Plexiglas enclosures (10×20×20 cm) on a clear glass plate preheated to 30° C. A radiant heat source (adjustable infrared lamp) and a timer were used to measure paw withdrawal latency (Model 390, IITC Instruments). Each paw was tested 4 times at 30% maximal intensity allowing 5 min between each test. […] Results of 4 tests were averaged for each paw for that session.

Plasma stability assay = format: in vitro ADME; details: 60 min; rat plasma, 10 μM
Method: Compounds are incubated at 10 μM in rat plasma at 37° C. A solution of each compound is prepared in ethanol at a concentration of 1 mM. A 2.5 μL volume of the 1 mM solution is added to 247.5 μL of rat plasma (male Sprague Dawley) in a glass test tube in a 37° C. water bath. Samples (50 μL) are removed at 0, 30 and 60 min and immediately extracted with 3 volumes (150 μL) of methanol. Samples are centrifuged (2500 rpm for 10 min at 4° C.) to pellet protein and supernatants transferred to LC/MS vials for analysis. Samples are stored at −80° C. prior to analysis.

[8] = S9 fraction stability assay; format: in vitro ADME; details: rat liver S9, 10 μM
Method: Compounds are incubated at 10 μM in rat (male Sprague Dawley) liver S9 at 37° C. Each compound is prepared in ethanol at a concentration of 1 mM. An assay mixture containing S9 (1 mg protein/mL final concentration) and an NADPH regenerating system (NADP [1 mM final], glucose 6-phosphate [5 mM final] and glucose 6-phosphate dehydrogenase [1 U/mL final]) in a buffer consisting of 50 mM KPO4 phosphate buffer, pH 7.4 with 3 mM MgCl2 is prepared and preincubated at 37° C. for 5 min. A 10 μL volume of the 1 mM solution is added to 990 μL of assay mixture in a glass test tube @ 37° C. to initiate the assay. Samples (50 μL) are removed at 0, 15, 30, 60 and 120 min and immediately extracted with 3 volumes (150 μL) of methanol, centrifuged to pellet protein and supernatants transferred to LC/MS vials for analysis.

rats [9] = test: Tetrad assays overall (CNS-mediated side effects); format: in vivo, rat; details: doses effective against neuropathy symptoms, i.p.
Source text: The CNS-mediated psychotropic actions of CB1R ligands represent their most troubling side effects. The cannabinoid agonists such as Δ9-THC or anandamide produce a complex pattern of behavioral effects which are unique to this class of compounds: at low doses a mixture of stimulatory and depressant effects is observed, while at higher doses central depression predominates^137,138. The tetrad of tests which is classically predictive of cannabinoid receptor activation includes: catalepsy, motor performance, hypothermia, and analgesia tests^139-141. Effects observed in all four tests have been thought to be mediated by the activation of central CBRs, but it is now well established that peripheral CBRs make a major contribution to the analgesic effects of cannabinoids^142-144. The catalepsy and motor deficits induced by CB1R ligands are likely produced by their action on CB1Rs within the basal ganglia and cerebellum, while hypothermia is thought to be mediated mainly through hypothalamic and brainstem CB1Rs^137, 145-150. […] Therefore, “tetrad” tests were used to determine whether the novel CB1R ligands have antinociceptive effects and side-effect profile consistent with the activation of central CB1Rs. […]

[10] = Table 1, CP55940 radioligand, read-out: CB1_KI_CP

Chain of CB1R (P21554 whole entry): as above

Compound | Ki (CB1R) [nM] | Ki (CB1R; [10]) [nM] | Ki (CB2R) [nM] | Emax (human CB1R (hCB1R)) [%] | effect on SNE-induced mechanical allodynia (ipsilateral hindpaw withdrawal thresholds) ([1]; systemic injection) | SNE Neuropath Assay-% return to pre-drug (0.3 mg/kg) contralateal threshold at 2-3 h [1] [%] | Catalepsy % change from pre-drug (0.3 mg/kg) at 1-3 hrs (rats [2]) [%] | effect in the hypothermia assay (rats [3]; 0.3 mg/kg, intraperitoneal) | Hypothermia % change from predrug (0.3 mg/kg) at 2-3 hr (rats [3]) [%] | Rotarod % change from pre-drug (0.3 mg/kg) at 2-3 hr (rats [4]) [%] | effect in the tail-flick assay (rats [5]) | effect on CFA-induced mechanical allodynia [6] | effect on CFA-induced heat hyperalgesia [7] | Ki (CB2R; Table 1, CP55940 radioligand, read-out: CB2_KI_CP) [nM] | Plasma % remaining @ xy min (Plasma stability assay) | S9% remaining @ xy min ([8]; 30 min) [%] | S9% remaining @ xy min ([8]; 60 min) [%] | S9% remaining @ xy min ([8]; 120 min) [%] | CNS side effects in the tetrad assays (rats [9])
COc1ccc(/C=C2\C=C(CCN3CCOCC3)c3ccccc32)c2ccccc12 [Compound 10, 4-{2-[(1E)-2-[(4-methoxy-naphthalen-1-yl)methylidene]-1H-inden-3-yl]ethyl} morpholine] | 2.4 | 2.43 | 4.17 | 114 | anti-allodynic effects | 103.2 | 0 | small difference | 0 | 0 | small, but significant effects | relatively small effect | robust relief | – | – | – | – | – | –
CCCCCn1cc(C(=O)c2cccc3ccccc23)c2cccc(F)c21 [Compound 65, 7-fluoro-3-(naphthalene-1-carbonyl)-1-pentyl-1H-indole] | – | 3.62 | – | 79 | – | 18.6 | 0 | – | 0 | 0 | – | – | – | 2.7 | 97 @ 60% | ~58 | 50 | 36 | –
CCCCCCC(C)(C)c1cc(O)c2c(c1)OC(C)(C)[C@@H]1CC=C(CO)C[C@@H]21 [HU-210] | – | – | – | – | – | – | – | – | – | – | – | – | – | – | – | – | – | – | potent CNS side effects
